Results from patent US20250170114A1, “METHODS OF TREATMENT USING T-TYPE CALCIUM CHANNEL MODULATORS” (Praxis Precision Medicines, Inc., priority 2022, published 2025).
Entries after “also recorded” stand apart in the source; their conditions may differ.

What was measured:
[1] = system: harmaline-induced motor impairment in male SD rats; experiment: Rotarod test with harmaline in SD rats; assay type: in vivo, rat; details: harmaline 30 mg/kg, 10 mg/kg
Procedure: (§1) Each of six groups of male SD rats were subjected to a tremor assessment, followed by three ADL-like measures including open field test, rotarod test, and wire grip test after receiving doses of either vehicle, Formula (I), or propranolol, followed by either saline or harmaline, as outlined below in Table 22 below.
Fifteen minutes after the open field test, the rats were subjected to a rotarod test. The speed of the rotarod increased from 10 rpms to 60 rpms within the first five minutes of the test. FIG. 9 is a bar graph showing the mean of latency to fall in the rotarod test measured in rats that were administered 30 mg/kg harmaline and also administered 10 mg/kg propranolol or 1 mg/kg, 3 mg/kg or 10 mg/kg study drug.

[2] = system: harmaline-induced tremor in male SD rats; experiment: Tremor assessment (tremor score 0-4) with harmaline in SD rats; assay type: in vivo, rat; details: harmaline 30 mg/kg, 10 mg/kg
Excerpt: as §1, with “below. Twenty minutes after administration of harmaline or saline, the rats were subjected to a tremor assessment using the score criteria outlined in the table below.” for “below.”

[3] = system: rat spontaneous locomotor activity (sLMA); experiment: Rat spontaneous locomotor activity (sLMA) assay; assay type: in vivo; details: rats, 0-30 min; compound of Formula (I) 1 mg/kg p.o., propranolol 1 or 3 mg/kg i.p., alone or in combination
Procedure: […] Rat sLMA was measured from 0-30 min (0 minutes is 60 minutes after administration of the compound of Formula (I) and 20 minutes after administration of propranolol).

[4] = system: harmaline-induced decrease in travelling distance in male SD rats; experiment: Open field test with harmaline in SD rats; assay type: in vivo, rat; details: harmaline 30 mg/kg, 10 mg/kg
Procedure: as §1
Fifteen minutes after the tremor assessment, the rats were subjected to an open field test. FIG. 8 is a bar graph showing the traveling distance in 0-5 minutes (mm) measured in rats that were administered 30 mg/kg harmaline and also administered 10 mg/kg propranolol or 1 mg/kg, 3 mg/kg or 10 mg/kg study drug.

[5] = system: harmaline-induced motor impairment in male SD rats; experiment: Wire grip test with harmaline in SD rats; assay type: in vivo, rat; details: harmaline 30 mg/kg, 10 mg/kg, reference compound
Excerpt: as §1
Fifteen minutes after the rotarod test, rats were subjected to a wire grip test using an 80 cm long and 7 mm in diameter wire placed at a height of 50 cm.

[6] = Plasma and brain tissue concentrations in rats after harmaline testing; assay type: in vivo, rat; details: collected immediately after harmaline testing
Procedure: Plasma and brain tissue sample collection (at 90 min post dosing of study compound) was evaluated in […]. N=15 in each group. Plasma and brain tissue samples were collected immediately after harmaline testing. Plasma sample number: 5×15=75. Brain tissue sample number: 5×15=75.

Question: For CC(C)NCC(O)COc1cccc2ccccc12 (stereo not drawn) [propranolol, reference compound], which “latency to fall in rotarod test vs vehicle and harmaline only” value [1] is on record?
Answer: The value was “failed to display any significant improvement; also recorded: no effect”.

Question: What about the “average tremor score vs vehicle and harmaline only” value [2] of the same molecule?
Answer: Its value is “significantly lower; also recorded: significantly inhibited”.

Question: And the “total sLMA (total distance travelled)” value [3]?
Answer: Its value is “do not significantly reduce”.

Question: What about the “harmaline-induced decrease in spontaneous locomotor activity in the open field” value [4] of the same molecule?
Answer: The value was “no effect”.

Question: And the “latency to fall in wire grip test” value [5]?
Answer: The value was “significant reduction in motor impairment; also recorded: significantly attenuated”.

Question: What about the “plasma and brain concentrations” value [6] of the same molecule?
Answer: The value was “consistent with those measured in previous studies”.
